Assay results from patent US7282592B2, “Resorcinol derivatives” (Warner-Lambert Company, priority 2000, dated 2007).

Biological target: T1, human tyrosinase (Homo sapiens, UniProt P14679)
T1 construct: endogenous in cells; host or cells: SKMEL 188 human melanoma cell line (lysate)
T1 sequence (P14679 19-529): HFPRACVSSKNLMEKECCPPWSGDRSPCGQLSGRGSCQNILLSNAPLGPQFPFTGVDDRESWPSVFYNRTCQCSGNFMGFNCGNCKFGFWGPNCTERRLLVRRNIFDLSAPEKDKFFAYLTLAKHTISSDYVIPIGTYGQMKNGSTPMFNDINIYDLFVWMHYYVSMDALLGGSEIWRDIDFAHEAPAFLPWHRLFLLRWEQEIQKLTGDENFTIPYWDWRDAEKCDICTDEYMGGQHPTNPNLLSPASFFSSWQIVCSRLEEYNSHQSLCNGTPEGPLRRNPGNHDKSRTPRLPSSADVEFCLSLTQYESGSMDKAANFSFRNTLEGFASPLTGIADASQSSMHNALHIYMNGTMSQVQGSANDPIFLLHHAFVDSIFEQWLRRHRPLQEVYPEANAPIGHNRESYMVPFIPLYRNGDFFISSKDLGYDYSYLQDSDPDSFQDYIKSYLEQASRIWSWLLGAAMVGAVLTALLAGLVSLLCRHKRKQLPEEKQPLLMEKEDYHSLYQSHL
Test: Tyrosinase (DOPA Oxidase) Assay Using Cell Lysate
Type: biochemical
Conditions: SKMEL 188 human melanoma cell lysates, L-DOPA 100 μg/ml, incubated 8 hrs, read at 405 nm
Description: 1. Tyrosinase (DOPA Oxidase) Assay Using Cell Lysate
Human melanoma cell line, SKMEL 188 (licensed from Memorial Sloan-Kettering), is used in the cell lysate assay and the screen. In the assay, compounds and L-dihydroxyphenylalanine (L-DOPA) (100 μg/ml) are incubated with the cell lysates containing human tyrosinase for 8 hrs before the plates are read at 405 nm.

Cc1ccc(S(=O)(=O)N[C@H]2CC[C@H](c3ccc(O)cc3O)CC2)cc1 [Example 14, N-[trans-4-(2,4-Dihydroxyphenyl)cyclohexyl]-4-methylbenzenesulfonamide]
IC50: ~4 µM
